Results on 19 compounds are retold here after US12157746B2, “Tetrahydro-1H-pyrazino[2,1-a]isoindolylquinoline compounds for the treatment of autoimmune disease” (F. HOFFMANN-LA ROCHE AG, priority 2018, dated 2024).

The assay deals with T1, human TLR7 (Homo sapiens, UniProt Q9NYK1).
T1 sequence (Q9NYK1 27-1049): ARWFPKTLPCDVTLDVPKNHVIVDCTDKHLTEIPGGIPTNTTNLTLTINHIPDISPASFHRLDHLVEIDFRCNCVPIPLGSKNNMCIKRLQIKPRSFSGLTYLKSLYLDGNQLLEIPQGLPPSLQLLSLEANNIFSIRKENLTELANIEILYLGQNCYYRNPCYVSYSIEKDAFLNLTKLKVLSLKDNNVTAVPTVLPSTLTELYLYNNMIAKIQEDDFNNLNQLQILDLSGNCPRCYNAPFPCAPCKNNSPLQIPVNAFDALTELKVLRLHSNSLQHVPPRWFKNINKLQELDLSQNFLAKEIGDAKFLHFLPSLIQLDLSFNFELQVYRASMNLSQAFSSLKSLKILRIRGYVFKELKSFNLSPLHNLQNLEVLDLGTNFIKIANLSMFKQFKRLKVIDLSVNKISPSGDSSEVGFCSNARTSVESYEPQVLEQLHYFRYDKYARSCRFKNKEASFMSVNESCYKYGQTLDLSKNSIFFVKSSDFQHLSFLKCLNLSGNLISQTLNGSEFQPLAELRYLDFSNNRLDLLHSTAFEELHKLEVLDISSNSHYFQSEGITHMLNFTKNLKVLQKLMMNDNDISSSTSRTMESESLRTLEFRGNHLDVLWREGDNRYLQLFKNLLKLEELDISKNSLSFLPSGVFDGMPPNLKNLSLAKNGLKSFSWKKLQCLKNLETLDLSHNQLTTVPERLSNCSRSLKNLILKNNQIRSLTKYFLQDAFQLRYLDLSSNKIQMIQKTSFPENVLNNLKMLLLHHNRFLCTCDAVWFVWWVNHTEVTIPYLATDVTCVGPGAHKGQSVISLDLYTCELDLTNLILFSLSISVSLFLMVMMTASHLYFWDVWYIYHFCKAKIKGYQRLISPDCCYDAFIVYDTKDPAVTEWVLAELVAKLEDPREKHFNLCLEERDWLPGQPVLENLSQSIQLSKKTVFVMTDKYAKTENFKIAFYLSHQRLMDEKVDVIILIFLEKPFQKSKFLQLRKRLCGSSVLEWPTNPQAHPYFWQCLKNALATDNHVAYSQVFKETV
Nature of the assay: HEK293-Blue-hTLR-7 cells assay. The class given is cell-based. Particulars: HEK293-Blue-hTLR7 cells, R848 stimulation, 20 hrs, SEAP reporter; read-out: HEK/hTLR7 IC50. From the text: HEK293-Blue-hTLR-7 Cells Assay:
A stable HEK293-Blue-hTLR-7 cell line was purchased from InvivoGen (Cat. #: hkb-htlr7, San Diego, California, USA). These cells were originally designed for studying the stimulation of human TLR7 by monitoring the activation of NF-κB. A SEAP (secreted embryonic alkaline phosphatase) reporter gene was placed under the control of the IFN-β minimal promoter fused to five NF-κB and AP-1-binding sites. The SEAP was induced by activating NF-κB and AP-1 via stimulating HEK-Blue hTLR7 cells with TLR7 ligands. Therefore the reporter expression was declined by TLR7 antagonist under the stimulation of a ligand, such as R848 (Resiquimod), for incubation of 20 hrs. The cell culture supernatant SEAP reporter activity was determined using QUANTI-Blue™ kit (Cat. #: rep-qb1, Invivogen, San Diego, Ca. USA) at a wavelength of 640 nm, a detection medium that turns purple or blue in the presence of alkaline phosphatase.
HEK293-Blue-hTLR7 cells were incubated at a density of 250,000˜450,000 cells/mL in a volume of 170 μL in a 96-well plate in Dulbecco's Modified Eagle's medium (DMEM) containing 4.5 g/L glucose, 50 U/mL penicillin, […], […], 2 mM L-glutamine, 10% (v/v) heat-inactivated fetal bovine serum with addition of 20 μL test compound 1n a serial dilution in the presence of final DMSO at 1% and 10 μL of 20 uM R848 in above DMEM, perform incubation under 37° C. in a CO2 incubator for 20 hrs. Then 20 μL of the supernatant from each well was incubated with 180 μL Quanti-blue substrate solution at 37° C. for 2 hrs and the absorbance was read at 620-655 nm using a spectrophotometer. The signaling pathway that TLR7 activation leads to downstream NF-κB activation has been widely accepted, and therefore similar reporter assay was modified for evaluating TLR7 antagonist.
`COC12CNCC1CN(c1ccc3c(c1)CN1[C@H](C)CN(c4ccc(C#N)c5ncccc45)C[C@H]31)C2` (stereo partly drawn) [Example 41, 5-[(4R,10bS)-8-(3a-methoxy-1,2,3,4,6,6a-hexahydropyrrolo[3,4-c]pyrrol-5-yl)-4-methyl-3,4,6,10b-tetrahydro-1H-pyrazino[2,1-a]isoindol-2-yl]quinoline-8-carbonitrile]: the IC50 is less than 3.2 nM.

Regarding `C[C@@H]1CN(c2ccc(C#N)c3ncccc23)C[C@@H]2c3ccc(C4CCNCC4)cc3CN12` [Example 9, 5-[(4R,10bS)-4-methyl-8-(4-piperidyl)-3,4,6,10b-tetrahydro-1H-pyrazino[2,1-a]isoindol-2-yl]quinoline-8-carbonitrile], the IC50 was less than 3.2 nM.

On to `CN[C@H]1CN(c2ccc3c(c2)CN2[C@H](C)CN(c4ccc(C#N)c5ncccc45)C[C@H]32)C[C@@H]1OC` [Example 23, 5-[(4R,10bS)-8-[(3S,4S)-3-methoxy-4-(methylamino)pyrrolidin-1-yl]-4-methyl-3,4,6,10b-tetrahydro-1H-pyrazino[2,1-a]isoindol-2-yl]quinoline-8-carbonitrile], for which the IC50 amounted to 7 nM.

As for `CO[C@@H]1CN(c2ccc3c(c2)CN2[C@H](C)CN(c4ccc(C#N)n5nccc45)C[C@H]32)CC[C@@H]1N` [Example 105, 4-[(4R,10bS)-8-[(3R,4S)-4-amino-3-methoxy-1-piperidyl]-4-methyl-3,4,6,10b-tetrahydro-1H-pyrazino[2,1-a]isoindol-2-yl]pyrazolo[1,5-a]pyridine-7-carbonitrile], the IC50 is 4.9 nM.

As to `C[C@@H]1CN(c2ccc(C#N)c3ncccc23)C[C@@H]2c3ccc(N4C[C@@H](F)[C@@H](N)C4)cc3CN12` [Example 46, 5-[(4R,10bS)-8-[(3S,4R)-3-amino-4-fluoro-pyrrolidin-1-yl]-4-methyl-3,4,6,10b-tetrahydro-1H-pyrazino[2,1-a]isoindol-2-yl]quinoline-8-carbonitrile], the IC50 was found to be 15.6 nM.

Regarding `CO[C@@H]1CN(c2ccc3c(c2)CN2C3CN(c3ccc(C#N)c4ncccc34)C[C@H]2C)C[C@@H]1N` (relative stereo) [Example 17, 5-[(4R,10bS)-8-[cis-3-amino-4-methoxy-pyrrolidin-1-yl]-4-methyl-3,4,6,10b-tetrahydro-1H-pyrazino[2,1-a]isoindol-2-yl]quinoline-8-carbonitrile], the IC50 is less than 3.2 nM.

As to `C[C@@H]1CN(c2ccc(C#N)c3ncccc23)C[C@@H]2c3ccc(N4CCOC5CNCC54)cc3CN12` (stereo partly drawn) [Example 52, 5-[(4R,10bS)-8-(3,4a,5,6,7,7a-hexahydro-2H-pyrrolo[3,4-b][1,4]oxazin-4-yl)-4-methyl-3,4,6,10b-tetrahydro-1H-pyrazino[2,1-a]isoindol-2-yl]quinoline-8-carbonitrile], the IC50 is 8.5 nM.

As to `CO[C@H]1CN(c2ccc3c(c2)CN2[C@H](C)CN(c4ccc(C#N)c5ncccc45)C[C@H]32)C[C@@H]1N` (relative stereo) [Example 16, 5-[(4R,10bS)-8-[trans-3-amino-4-methoxy-pyrrolidin-1-yl]-4-methyl-3,4,6,10b-tetrahydro-1H-pyrazino[2,1-a]isoindol-2-yl]quinoline-8-carbonitrile], the IC50 is 6.9 nM.

Regarding `C[C@@H]1CN(c2ccc(C#N)n3nccc23)C[C@@H]2c3ccc(N4C[C@@H](N)[C@](C)(O)C4)cc3CN12` [Example 108, 4-[(4R,10bS)-8-[(3R,4R)-4-amino-3-hydroxy-3-methyl-pyrrolidin-1-yl]-4-methyl-3,4,6,10b-tetrahydro-1H-pyrazino[2,1-a]isoindol-2-yl]pyrazolo[1,5-a]pyridine-7-carbonitrile], the IC50 was determined as 17.5 nM.

Take `CO[C@@H]1CN(c2ccc3c(c2)CN2[C@H](C)CN(c4ccc(C#N)n5nccc45)C[C@H]32)C[C@H]1N` [Example 94, 4-[(4R,10bS)-8-[(3R,4R)-3-amino-4-methoxy-pyrrolidin-1-yl]-4-methyl-3,4,6,10b-tetrahydro-1H-pyrazino[2,1-a]isoindol-2-yl]pyrazolo[1,5-a]pyridine-7-carbonitrile]: the IC50 was 13.7 nM.

On to `C[C@@H]1CN(c2ccc(C#N)c3ncccc23)C[C@@H]2c3ccc(NC4CNC4)cc3CN12` [Example 28, 5-[(4R,10S)-8-(azetidin-3-ylamino)-4-methyl-3,4,6,10b-tetrahydro-1H-pyrazino[2,1-a]isoindol-2-yl]quinoline-8-carbonitrile], for which the IC50 is 15.6 nM.

On to `C[C@@H]1CN(c2ccc(C#N)c3ncccc23)C[C@@H]2c3ccc(N4C[C@@H](N)[C@@H](F)C4)cc3CN12` [Example 47, 5-[(4R,10bS)-8-[(3R,4S)-3-amino-4-fluoro-pyrrolidin-1-yl]-4-methyl-3,4,6,10b-tetrahydro-1H-pyrazino[2,1-a]isoindol-2-yl]quinoline-8-carbonitrile], for which the IC50 is 4.8 nM.

On to `C[C@@H]1CN(c2ccc(C#N)c3ncccc23)CC2c3ccc(N4C[C@H](N)[C@@H](O)C4)cc3CN21` (relative stereo) [Example 21, 5-[(4R,10bS)-8-[trans-3-amino-4-hydroxy-pyrrolidin-1-yl]-4-methyl-3,4,6,10b-tetrahydro-1H-pyrazino[2,1-a]isoindol-2-yl]quinoline-8-carbonitrile], for which the IC50 turned out to be 5.8 nM.

Regarding `C[C@@H]1CN(c2ccc(C#N)c3ncccc23)C[C@@H]2c3ccc(N4CC5CNCC(C4)O5)cc3CN12` [Example 14, 5-[(4R,10bS)-4-methyl-8-(9-oxa-3,7-diazabicyclo[3.3.1]nonan-3-yl)-3,4,6,10b-tetrahydro-1H-pyrazino[2,1-a]isoindol-2-yl]quinoline-8-carbonitrile], the IC50 turned out to be 4.5 nM.

In the case of `C[C@@H]1CN(c2ccc(C#N)c3ncccc23)C[C@@H]2c3ccc(N4CCOC[C@@H](N)C4)cc3CN12` [Example 54B, 5-[(4R,10bS)-8-[(6S)-6-amino-1,4-oxazepan-4-yl]-4-methyl-3,4,6,10b-tetrahydro-1H-pyrazino[2,1-a]isoindol-2-yl]quinoline-8-carbonitrile], the IC50 amounted to 5.7 nM.

With `C[C@@H]1CN(c2ccc(C#N)n3nccc23)C[C@@H]2c3ccc(N4CC5CNCC(C4)O5)cc3CN12` [Example 107, 4-[(4R,10bS)-4-methyl-8-(9-oxa-3,7-diazabicyclo[3.3.1]nonan-3-yl)-3,4,6,10b-tetrahydro-1H-pyrazino[2,1-a]isoindol-2-yl]pyrazolo[1,5-a]pyridine-7-carbonitrile], the IC50 is 14.5 nM.

Take `C[C@@H]1CN(c2ccc(C#N)c3ncccc23)C[C@@H]2c3ccc(N4CC(N)C4)cc3CN12` [Example 22, 5-[(4R,10bS)-8-(3-aminoazetidin-1-yl)-4-methyl-3,4,6,10b-tetrahydro-1H-pyrazino[2,1-a]isoindol-2-yl]quinoline-8-carbonitrile]: the IC50 is less than 3.2 nM.

As to `C[C@@H]1CN(c2ccc(C#N)c3ncccc23)C[C@@H]2c3ccc(N[C@H]4CNC[C@@H]4F)cc3CN12` [Example 31, 5-[(4R,10bS)-8-[[(3S,4S)-4-fluoropyrrolidin-3-yl]amino]-4-methyl-3,4,6,10b-tetrahydro-1H-pyrazino[2,1-a]isoindol-2-yl]quinoline-8-carbonitrile], the IC50 was determined as 4.1 nM.

On to `C[C@@H]1CN(c2ccc(C#N)c3ncsc23)C[C@@H]2c3ccc(N4CCNCC4)cc3CN12` [Example 6, 7-[(4R,10bS)-4-methyl-8-piperazin-1-yl-3,4,6,10b-tetrahydro-1H-pyrazino[2,1-a]isoindol-2-yl]-1,3-benzothiazole-4-carbonitrile], for which the IC50 is less than 3.2 nM.
